For 21 molecules, EC50 results are on record in patent US20220251084A1, “PROGRANULIN MODULATORS AND METHODS OF USING THE SAME” (ARKUDA THERAPEUTICS, priority 2019, published 2022).

In one test the test system is progranulin (PGRN) secretion, BV-2 cells. Nature of the test: PGRN assay: progranulin induction cellular assay (ELISA of secreted mouse PGRN). The format is cell-based.
Details: not given
As to the method:
Cellular Assays: To measure the efficacy of compounds, a progranulin induction cellular assay in mouse primary microglia (pMG), primary cortical neurons, and BV-2 cell lines is used. BV-2 cells are split the day before plating into a 96 well plate format at approximately 80%. Cells should be plated the day before and allowed for 1 hour attachment period and for 16 hour incubation. […] Standard ELISA kits to measure PGRN are available from vendors such as Adipogen, R&D, and Biovendor.
(ELISA stands for enzyme-linked immunosorbent assay.)
Regarding `O=C(O[C@@H]1CN2CCC1CC2)N1CCn2nnnc2C1c1ccc(F)cc1` (stereo partly drawn) [Compound 2124], the concentration for a half-maximal effect (EC50) stood at 5340 nM.

The test is the same for the next values; noted with them: Mus musculus, BV-2.
Take `O=C(OCC12CCN(CC1)CC2)N1CCc2ccccc2[C@@H]1c1ccc(F)cc1` [Compound 2001]: the response was half-maximal at 170 nM (EC50). Same read-out and setting: the same measure for `COC(=O)c1ccc2c(c1)CCN(C(=O)O[C@@H]1CN3CCC1CC3)[C@H]2c1ccc(F)cc1` [Compound 2086]: above 10000 nM.

The same test, now with this note: Mus musculus, BV-2, PGRN assay, Table C; secreted mouse PGRN in cell culture medium, ELISA.
`CN1CCC(C)(OC(=O)N2CCc3ccccc3[C@@H]2c2ccc(F)cc2)CC1` [Compound 2129] gave an EC50 of 358 nM. Take `COC(=O)c1ccc2c(c1)CCN(C(=O)OCC13CCN(CC1)CC3)[C@H]2c1ccc(F)cc1` [Compound 2072]: the concentration for a half-maximal effect (EC50) is 8080 nM. Still for that read-out and setting: the same measure for `C#CCOCCN1CCC(COC(=O)N2CCc3ccccc3[C@@H]2c2ccc(F)cc2)CC1` [Compound 2196, (1-(2-(prop-2-yn-1-yloxy)ethyl)piperidin-4-yl)methyl (S)-1-(4-fluorophenyl)-3,4-dihydroisoquinoline-2(1H)-carboxylate]: above 10000 nM. With `CN1C2CCC1[C@@H](OC(=O)N1CCc3ccccc3[C@@H]1c1ccc(F)cc1)CC2` (stereo partly drawn) [Compound 2016], the midpoint of the response, the EC50, lay at 581 nM. For `COC(=O)c1ccc2c(c1)CCN(C(=O)NCC13CCN(CC1)CC3)[C@H]2c1ccc(F)cc1` [Compound 2068], the concentration giving a half-maximal response (EC50) turned out to be 3370 nM. On the same count and under the same terms, the same measure for `CN1CCC(COC(=O)N2CCc3ccccc3[C@H]2c2cc(F)c(F)c(F)c2)CC1` [Compound 2143]: 7750 nM; for `O=S(=O)(CCC12CCN(CC1)CC2)N1CCc2ccccc2[C@@H]1c1ccc(F)cc1` [Compound 2058, (S)-4-(2-(1-(4-fluorophenyl)-3,4-dihydroisoquinolin-2(1H)-ylsulfonyl)ethyl)quinuclidine]: 3000 nM. `CN1[C@H]2COC[C@H]1CC(OC(=O)N1CCc3ccccc3[C@@H]1c1ccc(F)cc1)C2` (single isomer, unassigned) [Compound 2099] registered a concentration for a half-maximal effect (EC50) of 1880 nM. In the case of `CN1CCC(F)(COC(=O)N2CCc3ccccc3[C@@H]2c2ccc(F)cc2)CC1` [Compound 2114], a half-maximal response (EC50) required 401 nM.

The molecule `CNC(=O)c1ccc2c(c1)[C@H](c1ccc(F)cc1)N(C(=O)NCC13CCN(CC1)CC3)CC2` [Compound 2119, (S)-1-(4-fluorophenyl)-N7-methyl-N2-(quinuclidin-4-ylmethyl)-3,4-dihydroisoquinoline-2,7(1H)-dicarboxamide] gave a half-maximal effective concentration (EC50) above 10000 nM. Still for that read-out and setting: the result for `CS(=O)(=O)c1ccc2c(c1)CCN(C(=O)N[C@@H]1CN3CCC1CC3)[C@@H]2c1ccc(F)cc1` [Compound 2041, 1-(4-fluorophenyl)-6-(methylsulfonyl)-N—((S)-quinuclidin-3-yl)-3,4-dihydroisoquinoline-2(1H)-carboxamide] reads above 10000 nM.

The same test, now with this note: Mus musculus, BV-2, PGRN assay, Table D; secreted mouse PGRN in cell culture medium, ELISA.
Consider `O=C(N[C@@H]1CNC[C@@H]1F)N1CCc2ccccc2[C@@H]1c1ccc(F)cc1` [Compound 2353], for which the 50% effective concentration (EC50) amounted to 33.9 nM. As for `CN(C(=O)N1CCc2ccccc2[C@@H]1c1ccc(F)cc1)[C@H]1CCCNC1` (single isomer, unassigned) [Compound 2211], the EC50 worked out at 3030 nM. The same measure, in the same setting: the result for `CN1CCC(C(=O)C(=O)N2CCc3ccccc3[C@@H]2c2ccc(F)cc2)C1` (stereo partly drawn) [Compound 2274, 1-((S)-1-(4-fluorophenyl)-3,4-dihydroisoquinolin-2(1H)-yl)-2-(1-methylpyrrolidin-3-yl)ethane-1,2-dione] reads 1400 nM; that for `O=C(N[C@@H]1CNCC1(F)F)N1CCc2ccccc2[C@@H]1c1ccc(F)cc1` (stereo in doubt) [Compound 2244, (1 S)—N-(4,4-difluoropyrrolidin-3-yl)-1-(4-fluorophenyl)-3,4-dihydroisoquinoline-2(1H)-carboxamide], 3260 nM.

`O=C(O[C@@H]1CNC[C@@H]1F)N1CCc2ccccc2[C@@H]1c1ccc(F)cc1` [Compound 2363] showed a 50% effective concentration (EC50) of 104 nM. `O=C(NC[C@@H]1CNCCO1)N1CCc2ccccc2[C@@H]1c1ccc(F)cc1` [Compound 2209] returned a concentration for a half-maximal effect (EC50) of 730 nM. `O=C(O[C@H]1CCNC1)N1CCc2ccccc2[C@H]1c1ccc(F)cc1` [Compound 2272]: the concentration giving a half-maximal response (EC50) was found to be 2030 nM.

One may read the EC50 as the concentration giving half of the maximal effect. A high value points to lower potency in that assay.
